In patent US12291533B2, “Substituted fused pyrimidine compounds and uses thereof” (Northwestern University, priority 2017, dated 2025):

Molecular target: T1, glucocerebrosidase (Homo sapiens, UniProt P04062)
T1 sequence (P04062 40-536): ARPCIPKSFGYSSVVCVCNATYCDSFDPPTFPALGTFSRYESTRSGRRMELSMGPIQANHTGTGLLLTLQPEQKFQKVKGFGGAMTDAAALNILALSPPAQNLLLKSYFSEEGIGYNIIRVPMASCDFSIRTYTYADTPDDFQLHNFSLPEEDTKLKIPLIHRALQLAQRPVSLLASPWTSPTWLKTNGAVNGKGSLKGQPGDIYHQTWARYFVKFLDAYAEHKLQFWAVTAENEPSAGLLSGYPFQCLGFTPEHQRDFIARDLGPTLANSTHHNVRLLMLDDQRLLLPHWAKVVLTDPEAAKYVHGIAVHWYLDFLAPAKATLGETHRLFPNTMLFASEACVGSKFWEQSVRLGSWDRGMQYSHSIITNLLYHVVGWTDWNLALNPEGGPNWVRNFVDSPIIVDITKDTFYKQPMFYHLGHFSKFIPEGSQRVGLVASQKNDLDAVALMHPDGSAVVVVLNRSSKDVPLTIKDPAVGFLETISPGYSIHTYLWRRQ
Assay: Glucocerebrosidase activity assay with blue substrate (4MU-Glc)
Assay type: biochemical
Experimental: Example 2—Glucocerebrosidase Activity Assay with Blue Substrate
The compounds in DMSO solution 0.5 μL/well were transferred to a black 96-well plate (the final titration was 24 nM to 50 μM, 12 concentrations, 2× dilution). 33.5 μL enzyme solution (7.5 nM final concentration) was transferred to the wells. After 5 min of incubation at room temperature, the enzyme reaction was initiated by the addition of 33 μL/well blue substrate. Final concentration of the blue substrate (4MU-Glc) was 1.5 mM. The blue substrate reaction was terminated by the addition of 33 μL/well stop solution (1 M NaOH and 1 M glycine mixture, pH 10) after 30 min of incubation at 37° C. The fluorescence was then measured in the Biotek Synergy H1 multi-mode plate reader with Ex=365 nm and Em=440 nm.
Additional compounds were synthesized and tested for glucocerebrosidase modulatory activity as described in Example 1 and Example 2.

[1] = Table 1, 7.5 nM enzyme, 1.5 mM 4MU-Glc, 30 min at 37° C.
[2] = Table 1, 7.5 nM enzyme, 1.5 mM 4MU-Glc, 30 min at 37° C., titration 24 nM to 50 μM
[3] = Table 2, additional compounds, tested as described in Example 2

Compound	Emax [1]	AC50 [2]	AC50 [3]	Emax [3]
CN(CCOc1cccc(C(=O)O)c1)c1nc(-c2cccnc2)nc2ccccc12 [Compound 80]	442%	15.8 µM	–	–
CN(CCOc1ccccc1)c1nc(-c2ccnc3ccccc23)nc2ccccc12 [Compound 81]	280%	3.16 µM	–	–
CN(CC1Cc2ccccc2O1)c1nc(-c2cccnc2)nc2ccccc12 (stereo not drawn) [Compound 82]	501%	1.12 µM	–	–
CN(CCOc1ccc(C(=O)ON2C(=O)CCC2=O)cc1)c1nc(-c2cccnc2)nc2ccccc12 [Compound 83]	230%	3.98 µM	–	–
CN(CCOc1cccc(C(=O)ON2C(=O)CCC2=O)c1)c1nc(-c2cccnc2)nc2ccccc12 [Compound 84]	457%	4.47 µM	–	–
CN(CCOc1ccccc1)c1cc(-c2cccnc2)nc(-c2cccnc2)n1 [Compound 85]	460%	2.24 µM	–	–
CN(CCOc1cccc(CCO)c1)c1nc(-c2cccnc2)nc2ccccc12 [Compound 86]	–	15.8 µM	–	–
Cn1ncc2c(NCC3CCc4ccccc4O3)nc(-c3cccnc3)nc21 (stereo not drawn) [Compound 87]	173%	10 µM	–	–
CN(c1nc(-c2cccnc2)nc2c1cnn2C)C1CCCN(c2ccccc2)C1 (stereo not drawn) [Compound 88]	142%	5.01 µM	–	–
CN(Cc1cc2ccccc2o1)c1nc(-c2cccnc2)nc2c1cnn2C [Compound 89]	660%	4.47 µM	–	–
COC(=O)Cc1cccc(OCCN(C)c2nc(-c3cccnc3)nc3c2cnn3C)c1 [Compound 90]	908%	7.94 µM	–	–
Cn1ncc2c(NCCOC3CCCCC3)nc(-c3cccnc3)nc21 [Compound 91]	322%	44.7 µM	–	–
CN(CCOc1ccccc1)c1nc(-c2cccnc2)nc2c1ncn2C [Compound 92]	790%	35.5 µM	–	–
CN(CCOc1ccccc1)c1nc(-c2cccnc2)nc2scnc12 [Compound 93]	270%	4.47 µM	–	–
COC(=O)Cc1cccc(OCCN(C)c2nc(-c3cccnc3)nc3ncccc23)c1 [Compound 94]	–	14.1 µM	–	–
COC(=O)Cc1cccc(OCCN(C)c2nc(-c3cccnc3)nc3ccccc23)c1 [Compound 95]	721%	4.47 µM	–	–
CN(CCOc1cccc(CC(=O)ON2C(=O)CCC2=O)c1)c1nc(-c2cccnc2)nc2c1cnn2C [Compound 96]	583%	7.94 µM	–	–
CN(CCOc1ccccc1)c1nc(-c2cccnc2)nn2cccc12 [Compound 97]	531%	3.16 µM	–	–
CC(C)n1ncc2c(N(C)CCOc3ccccc3)nc(-c3cccnc3)nc21 [Compound 98]	140%	28.2 µM	–	–
CCn1ncc2c(N(C)CCOc3ccccc3)nc(-c3cccnc3)nc21 [Compound 99]	208%	0.71 µM	–	–

Compound	Emax [1]	AC50 [2]	AC50 [3]	Emax [3]
Cn1ncc2c(N3CC[C@@H](Oc4ccccc4)C3)nc(-c3cccnc3)nc21 [Compound 100]	833%	5.62 µM	–	–
CN(CCN1CCc2ccccc2C1)c1nc(-c2cccnc2)nc2c1cnn2C [Compound 101]	197%	79.4 µM	–	–
CN(CCOC1CCCCC1)c1nc(-c2cccnc2)nc2c1cnn2C [Compound 102]	–	25.1 µM	–	–
CN(CCOc1ccc2c(c1)CCCC2)c1nc(-c2cccnc2)nc2c1cnn2C [Compound 103]	371%	3.16 µM	–	–
CN(Cc1ccc2ccccc2n1)c1nc(-c2cccnc2)nc2c1cnn2C [Compound 104]	425%	6.31 µM	–	–
CN(CC1CCc2ccccc2O1)c1nc(-c2cccnc2)nc2c1cnn2C (stereo not drawn) [Compound 105]	662%	6.31 µM	–	–
CCn1ncc2c(N(C)C[C@H]3COc4ccccc4O3)nc(-c3cccnc3)nc21 [Compound 106]	250%	1.12 µM	–	–
CCn1ncc2c(N(C)Cc3ccc4c(c3)OCO4)nc(-c3cccnc3)nc21 [Compound 108]	400%	7.08 µM	–	–
CN(Cc1ccc2ncccc2c1)c1nc(-c2cccnc2)nc2c1cnn2C [Compound 109]	475%	14.1 µM	–	–
CCn1ncc2c(N(C)CCOc3ccc(CN)cc3)nc(-c3cccnc3)nc21 [Compound 110]	750%	7.94 µM	–	–
CCn1ncc2c(N(C)CCOc3ccc(CNC(=O)CCCCCNC(=O)OC(C)(C)C)cc3)nc(-c3cccnc3)nc21 [Compound 111]	675%	0.5 µM	–	–
CCn1ncc2c(N(C)CCOc3ccc(CNC(=O)CCCCCN)cc3)nc(-c3cccnc3)nc21 [Compound 112]	530%	3.55 µM	–	–
Cn1ncc2c(N3CCC[C@H](C(=O)Nc4ccccc4)C3)nc(-c3cccnc3)nc21 [Compound 116]	–	–	12.6 µM	210%
Cn1ncc2c(N3CCC[C@@H](C(=O)Nc4ccccc4)C3)nc(-c3cccnc3)nc21 [Compound 117]	–	–	14.1 µM	310%
CCc1ccc(-c2nc(N(C)CCOc3ccc(C#N)cc3)c3cnn(CC)c3n2)cc1 [Compound 123]	–	–	3.16 µM	105%
CCc1ccc(-c2nc(N(C)CCOc3ccc(CN)cc3)c3cnn(CC)c3n2)cc1 [Compound 124]	–	–	6.31 µM	480%
CCn1ncc2c(N(C)CCOc3ccc(CNC(C)=O)cc3)nc(-c3cccnc3)nc21 [Compound 125]	–	–	6.31 µM	610%
CCCCCC(=O)NCc1ccc(OCCN(C)c2nc(-c3cccnc3)nc3c2cnn3CC)cc1 [Compound 126]	–	–	0.2 µM	150%
CN(CCC(=O)Nc1ccccc1)c1nc(-c2cccnc2)nc2ccccc12 [Compound 127]	–	–	35.5 µM	325%
CN(CCC(=O)Nc1ccccc1)c1nc(-c2cccnc2)nc2c1cnn2C [Compound 128]	–	–	44.7 µM	275%

Compound	Emax [1]	AC50 [2]	AC50 [3]	Emax [3]
CN(C)c1ccc2c(-c3ccc(C(=O)NCCOCCOCCOCCOCCC(=O)NCCCCCC(=O)Nc4ccc(-c5nc(N(C)CCOc6ccccc6)c6ccccc6n5)cc4)cc3C(=O)[O-])c3ccc(=[N+](C)C)cc-3oc2c1 [Compound 135]	–	–	1.67 µM	–
CCn1ncc2c(N(C)CCOc3ccc(C#N)cc3)nc(-c3ccsc3)nc21 [Compound 136]	–	–	2 µM	138%
CCn1ncc2c(N(C)CCOc3ccc(CN)cc3)nc(-c3ccsc3)nc21 [Compound 137]	–	–	2 µM	200%
CN(CCOc1ccc2nccnc2c1)c1nc(-c2cccnc2)nc2ccccc12 [Compound 138]	–	–	10 µM	875%
CCn1ncc2c(N(C)CCOc3ccc(CNC(=O)CNC(=O)OC(C)(C)C)cc3)nc(-c3cccnc3)nc21 [Compound 139]	–	–	6.31 µM	980%
CCn1ncc2c(N(C)CCOc3ccc(CNC(=O)CCNC(=O)OC(C)(C)C)cc3)nc(-c3cccnc3)nc21 [Compound 140]	–	–	2.82 µM	980%
CCn1ncc2c(N(C)CCOc3ccc(CNC(=O)CCCCNC(=O)OC(C)(C)C)cc3)nc(-c3cccnc3)nc21 [Compound 141]	–	–	0.5 µM	800%
CCc1cncc(-c2nc(N(C)CCOc3ccccc3)c3ccccc3n2)c1 [Compound 144]	–	–	3.16 µM	700%
CN(CCOc1ccccc1)c1nc(-c2cnc3ccccc3c2)nc2ccccc12 [Compound 145]	–	–	1.6 µM	185%
CCn1ncc2c(N(C)CCOc3ccc(CNC(=O)CCCNC(=O)OC(C)(C)C)cc3)nc(-c3cccnc3)nc21 [Compound 146]	–	–	1.41 µM	940%
CN(CCOc1ccc2[nH]ccc2c1)c1nc(-c2cccnc2)nc2ccccc12 [Compound 147]	–	–	4.47 µM	450%
c1cncc(-c2nc(N3CCc4cccnc4C3)c3ccccc3n2)c1 [Compound 148]	–	–	35 µM	285%
CCn1ncc2c(N(C)CCOc3ccc(CNC(=O)CCCCNC(=O)OC(C)(C)C)cc3)nc(-c3ccsc3)nc21 [Compound 149]	–	–	0.4 µM	157%
CCN1Cc2nc(-c3cccnc3)nc(N(C)CCOc3ccccc3)c2C1 [Compound 150]	–	–	1.25 µM	135%
CN(CCOc1ccccc1)c1nc(-c2cccnc2)nc2c1cnn2-c1ccccc1 [Compound 151]	–	–	2.5 µM	305%
CN(CCOc1ccccc1)c1nc(-c2cccnc2)nc2c1cnn2Cc1ccccc1 [Compound 152]	–	–	2 µM	425%
CN(CCOc1ccccc1)c1nc(-c2cccnc2)nc2c1oc1ccccc12 [Compound 153]	–	–	1.58 µM	178%
c1ccc(O[C@H]2CCN(c3nc(-c4cccnc4)nc4ccccc34)C2)cc1 [Compound 154]	–	–	4.47 µM	190%
c1ccc(O[C@@H]2CCN(c3nc(-c4cccnc4)nc4ccccc34)C2)cc1 [Compound 155]	–	–	1.78 µM	260%
